Source: the NIST ThermoML archive (doi:10.1021/je700096m)

Test: xn = mol fraction of the nth substance listed
Details: 298.15 K, Liquid

CCCCCCCCCl [1-chlorooctane] + CC(=O)N(C)C
mass density [kg/m3]
Details | x2 = 0.0963 | x2 = 0.2006 | x2 = 0.2938 | x2 = 0.4059 | x2 = 0.5022 | x2 = 0.602 | x2 = 0.7005 | x2 = 0.8075 | x2 = 0.901
100 kPa | 872 | 875.8 | 879.6 | 884.87 | 890.2 | 896.7 | 904.1 | 913.7 | 923.6
2000 kPa | 873.5 | 877.2 | 881.1 | 886.2 | 891.5 | 898.1 | 905.4 | 914.9 | 924.8
4000 kPa | 875 | 878.7 | 882.5 | 887.6 | 892.9 | 899.4 | 906.8 | 916.3 | 926.1
6000 kPa | 876.5 | 880.2 | 884 | 889 | 894.3 | 900.8 | 908.1 | 917.5 | 927.3
8000 kPa | 877.9 | 881.6 | 885.5 | 890.4 | 895.8 | 902.2 | 909.4 | 918.8 | 928.5
10000 kPa | 879.5 | 883.1 | 887 | 892 | 897.3 | 903.6 | 910.8 | 920 | 929.8
12000 kPa | 880.9 | 884.5 | 888.3 | 893.3 | 898.5 | 904.9 | 912.1 | 921.3 | 931
14000 kPa | 882.3 | 885.9 | 889.7 | 894.6 | 899.9 | 906.1 | 913.4 | 922.4 | 932.2
15900 kPa | – | – | – | – | – | 907.4 | – | – | –
16000 kPa | 883.7 | 887.3 | 891.1 | 896 | 901.1 | – | 914.6 | 923.7 | 933.3
18000 kPa | 885 | 888.6 | 892.4 | 897.3 | 902.4 | 908.7 | 915.8 | 924.9 | 934.4
20000 kPa | 886.5 | 890.1 | 893.9 | 898.5 | 903.8 | 910 | 917.1 | 926.1 | 935.7

CCCCCl [1-chlorobutane] + CN(C)C=O
mass density [kg/m3]
Details | x2 = 0.0998 | x2 = 0.1981 | x2 = 0.2988 | x2 = 0.4019 | x2 = 0.501 | x2 = 0.6087 | x2 = 0.7008 | x2 = 0.8163 | x2 = 0.9007
100 kPa | 885.5 | 890.7 | 896.3 | 902.3 | 908.6 | 915.5 | 921.8 | 930.2 | 936.6
2000 kPa | 887.4 | 892.5 | 898 | 903.9 | 910.1 | 917 | 923.1 | 931.5 | 937.8
4000 kPa | 889.3 | 894.4 | 899.8 | 905.7 | 911.7 | 918.5 | 924.6 | 932.8 | 939.1
6000 kPa | 891.2 | 896.3 | 901.6 | 907.3 | 913.3 | 920 | 926 | 934.2 | 940.3
7900 kPa | – | – | – | – | – | – | 927.5 | – | –
8000 kPa | 893.1 | 898.1 | 903.3 | 908.9 | 914.9 | 921.5 | – | 935.4 | 941.5
10000 kPa | 895.1 | 900 | 905.1 | 910.7 | 916.6 | 923 | 928.8 | 936.8 | 942.9
11900 kPa | – | – | – | – | 918 | – | – | – | –
12000 kPa | 896.9 | 901.6 | 906.8 | 912.2 | – | 924.4 | 930.3 | 938.1 | 944.1
14000 kPa | 898.6 | 903.4 | 908.4 | 913.8 | 919.5 | 925.9 | 931.7 | 939.3 | 945.3
16000 kPa | 900.4 | 905.1 | 910.1 | 915.3 | 921 | 927.21 | 933 | 940.6 | 946.4
18000 kPa | 902.1 | 906.8 | 911.7 | 916.7 | 922.4 | – | 934.3 | 941.8 | 947.5
18100 kPa | – | – | – | – | – | 928.6 | – | – | –
20000 kPa | 903.8 | 908.7 | 913.1 | 918.3 | 924 | 930.2 | 935.6 | 943.3 | 949.1

CCCCCCCl [1-chlorohexane] + CC(=O)N(C)C
mass density [kg/m3]
Details | x2 = 0.0952 | x2 = 0.2003 | x2 = 0.3011 | x2 = 0.4036 | x2 = 0.503 | x2 = 0.6051 | x2 = 0.6992 | x2 = 0.8013 | x2 = 0.8996
100 kPa | 877.1 | 881.6 | 886.4 | 891.9 | 897.5 | 903.8 | 910.4 | 918.4 | 926.8
2000 kPa | 878.7 | 883.2 | 888 | 893.41 | 899 | 905.2 | 911.7 | 919.7 | 928.1
4000 kPa | 880.4 | 884.8 | 889.5 | 895 | 900.4 | 906.7 | 913.1 | 921 | 929.3
6000 kPa | 882 | 886.4 | 891.2 | 896.5 | 901.9 | 908.1 | 914.5 | 922.3 | 930.5
8000 kPa | 883.6 | 888 | 892.7 | 898 | 903.4 | 909.5 | 915.9 | 923.6 | 931.7
10000 kPa | 885.3 | 889.6 | 894.3 | 899.6 | 904.9 | 910.9 | 917.3 | 925 | 933.1
11900 kPa | – | – | – | – | – | – | 918.6 | – | –
12000 kPa | 886.8 | 891.2 | 895.8 | 901 | 906.3 | 912.3 | – | 926.3 | 934.3
14000 kPa | 888.4 | 892.78 | 897.2 | 902.4 | 907.6 | 913.6 | 919.9 | 927.5 | 935.5
16000 kPa | 889.9 | 894.1 | 898.7 | 903.8 | 909 | 914.9 | 921.2 | 928.7 | 936.6
18000 kPa | 891.3 | 895.6 | 900.1 | 905.2 | 910.3 | 916.2 | 922.6 | 929.9 | 937.7
20000 kPa | 892.9 | 897.2 | 901.8 | – | 911.8 | 917.7 | 924 | 931.3 | –
20100 kPa | – | – | – | 906.8 | – | – | – | – | 939
